# Laboratory results from ChEMBL document CHEMBL3885881, “DrugMatrix”.
# Species: Rattus norvegicus
# Test: DrugMatrix - Regimen: Daily Repeat
# Type: toxicity, organism-based, Sprague-Dawley
# Set-up: regimen Daily Repeat, gender Male, age 6-8 weeks
# Details: in vivo, po, route oral GAVAGE, vehicle .5 % CMC; for ABSOLUTE BASOPHIL / ABSOLUTE EOSINOPHIL / ABSOLUTE LYMPHOCYTE / ABSOLUTE MONOCYTE / ABSOLUTE SEGMENTED NEUTROPHIL / BASOPHIL / EOSINOPHIL / ERYTHROCYTE COUNT / HEMATOCRIT / HEMOGLOBIN / LEUKOCYTE COUNT / LYMPHOCYTE / MEAN CORPUSCULAR HEMOGLOBIN / MEAN CORPUSCULAR HEMOGLOBIN CONCENTRATION / MEAN CORPUSCULAR VOLUME / MONOCYTE / NEUTROPHIL / NUCLEATED RED BLOOD CELLS / PLATELET COUNT: tissue Blood; for ALANINE AMINOTRANSFERASE / ALBUMIN / ALKALINE PHOSPHATASE / ASPARTATE AMINOTRANSFERASE / BLOOD UREA NITROGEN / CARBON DIOXIDE / CHLORIDE / CHOLESTEROL / CREATINE PHOSPHOKINASE / CREATININE / GLUCOSE / LACTATE DEHYDROGENASE / LIPASE / PHOSPHORUS / POTASSIUM / SODIUM / TOTAL BILIRUBIN / TOTAL PROTEIN / URIC ACID: tissue Plasma
# [1] = 0 mg/kg, 72 h, dose level Control, time 3 day
# [2] = 0 mg/kg, 120 h, dose level Control, time 5 day
# [3] = 20 mg/kg, 72 h, dose level Low, time 3 day
compound,measurement,setting,value
NC(=O)N1c2ccccc2CC(=O)c2ccccc21 [OXCARBAZEPINE],ABSOLUTE BASOPHIL,[1],0 CELLS/uL
same,ABSOLUTE EOSINOPHIL,[1],0 CELLS/uL
same,ABSOLUTE LYMPHOCYTE,[1],12269.67 CELLS/uL
same,ABSOLUTE MONOCYTE,[1],160.33 CELLS/uL
same,ABSOLUTE SEGMENTED NEUTROPHIL,[1],970 CELLS/uL
same,BASOPHIL,[1],0%
same,EOSINOPHIL,[1],0%
same,ERYTHROCYTE COUNT,[1],5.76 x10E6/uL
same,HEMATOCRIT,[1],36.57%
same,HEMOGLOBIN,[1],14.22 G/DL
same,LEUKOCYTE COUNT,[1],13.4 x10E3/uL
same,LYMPHOCYTE,[1],91.67%
same,MEAN CORPUSCULAR HEMOGLOBIN,[1],24.67 pg
same,MEAN CORPUSCULAR HEMOGLOBIN CONCENTRATION,[1],38.85 G/DL
same,MEAN CORPUSCULAR VOLUME,[1],63.52 fL
same,MONOCYTE,[1],1.17%
same,NEUTROPHIL,[1],7.17%
same,NUCLEATED RED BLOOD CELLS,[1],0.33 /100WBC
same,PLATELET COUNT,[1],1250.83 x10E3/uL
same,ALANINE AMINOTRANSFERASE,[1],49.17 u/L
same,ALBUMIN,[1],4.33 G/DL
same,ALKALINE PHOSPHATASE,[1],378.5 u/L
same,ASPARTATE AMINOTRANSFERASE,[1],82.17 u/L
same,BLOOD UREA NITROGEN,[1],15 mg/dL
same,CARBON DIOXIDE,[1],34.33 mmol/L
same,CHLORIDE,[1],99.17 MEQ/L
same,CHOLESTEROL,[1],71.17 mg/dL
same,CREATINE PHOSPHOKINASE,[1],258.67 u/L
same,CREATININE,[1],0.18 mg/dL
same,GLUCOSE,[1],142.67 mg/dL
same,LACTATE DEHYDROGENASE,[1],154.33 u/L
same,LIPASE,[1],9 u/L
same,PHOSPHORUS,[1],11.67 mg/dL
same,POTASSIUM,[1],7.13 MEQ/L
same,SODIUM,[1],142.22 MEQ/L
same,TOTAL BILIRUBIN,[1],0.18 mg/dL
same,TOTAL PROTEIN,[1],5.77 G/DL
same,URIC ACID,[1],1.55 mg/dL
same,ABSOLUTE BASOPHIL,[2],0 CELLS/uL
same,ABSOLUTE EOSINOPHIL,[2],23.33 CELLS/uL
same,ABSOLUTE LYMPHOCYTE,[2],14943.67 CELLS/uL
same,ABSOLUTE MONOCYTE,[2],32 CELLS/uL
same,ABSOLUTE SEGMENTED NEUTROPHIL,[2],1084.33 CELLS/uL
same,BASOPHIL,[2],0%
same,EOSINOPHIL,[2],0.17%
same,ERYTHROCYTE COUNT,[2],5.71 x10E6/uL
same,HEMATOCRIT,[2],35.28%
same,HEMOGLOBIN,[2],14.27 G/DL
same,LEUKOCYTE COUNT,[2],16.08 x10E3/uL
same,LYMPHOCYTE,[2],93%
same,MEAN CORPUSCULAR HEMOGLOBIN,[2],25.02 pg
same,MEAN CORPUSCULAR HEMOGLOBIN CONCENTRATION,[2],40.43 G/DL
same,MEAN CORPUSCULAR VOLUME,[2],61.82 fL
same,MONOCYTE,[2],0.17%
same,NEUTROPHIL,[2],6.67%
same,NUCLEATED RED BLOOD CELLS,[2],0.33 /100WBC
same,PLATELET COUNT,[2],1274 x10E3/uL
same,ALANINE AMINOTRANSFERASE,[2],54.17 u/L
same,ALBUMIN,[2],4.22 G/DL
same,ALKALINE PHOSPHATASE,[2],373.17 u/L
same,ASPARTATE AMINOTRANSFERASE,[2],81.83 u/L
same,BLOOD UREA NITROGEN,[2],16.67 mg/dL
same,CARBON DIOXIDE,[2],30.33 mmol/L
same,CHLORIDE,[2],99 MEQ/L
same,CHOLESTEROL,[2],71 mg/dL
same,CREATINE PHOSPHOKINASE,[2],273.5 u/L
same,CREATININE,[2],0.22 mg/dL
same,GLUCOSE,[2],141.83 mg/dL
same,LACTATE DEHYDROGENASE,[2],153.67 u/L
same,LIPASE,[2],10.33 u/L
same,PHOSPHORUS,[2],11.38 mg/dL
same,POTASSIUM,[2],7.08 MEQ/L
same,SODIUM,[2],142.75 MEQ/L
same,TOTAL BILIRUBIN,[2],0.18 mg/dL
same,TOTAL PROTEIN,[2],6.1 G/DL
same,URIC ACID,[2],1.67 mg/dL
same,ABSOLUTE BASOPHIL,[3],0 CELLS/uL
same,ABSOLUTE EOSINOPHIL,[3],39.67 CELLS/uL
same,ABSOLUTE LYMPHOCYTE,[3],12910 CELLS/uL
same,ABSOLUTE MONOCYTE,[3],169.33 CELLS/uL
same,ABSOLUTE SEGMENTED NEUTROPHIL,[3],1314.33 CELLS/uL
same,BASOPHIL,[3],0%
same,EOSINOPHIL,[3],0.33%
same,ERYTHROCYTE COUNT,[3],5.51 x10E6/uL
same,HEMATOCRIT,[3],35.53%
same,HEMOGLOBIN,[3],14 G/DL
same,LEUKOCYTE COUNT,[3],14.43 x10E3/uL
same,LYMPHOCYTE,[3],90%
same,MEAN CORPUSCULAR HEMOGLOBIN,[3],25.43 pg
same,MEAN CORPUSCULAR HEMOGLOBIN CONCENTRATION,[3],39.43 G/DL
same,MEAN CORPUSCULAR VOLUME,[3],64.5 fL
same,MONOCYTE,[3],1.33%
same,NEUTROPHIL,[3],8.33%
same,NUCLEATED RED BLOOD CELLS,[3],0.33 /100WBC
same,PLATELET COUNT,[3],1357.67 x10E3/uL
same,ALANINE AMINOTRANSFERASE,[3],55.67 u/L
same,ALBUMIN,[3],4.33 G/DL
same,ALKALINE PHOSPHATASE,[3],378.33 u/L
same,ASPARTATE AMINOTRANSFERASE,[3],87.67 u/L
same,BLOOD UREA NITROGEN,[3],12.67 mg/dL
same,CARBON DIOXIDE,[3],27.33 mmol/L
same,CHLORIDE,[3],103 MEQ/L
same,CHOLESTEROL,[3],73.33 mg/dL
same,CREATINE PHOSPHOKINASE,[3],333.33 u/L
same,CREATININE,[3],0.24 mg/dL
same,GLUCOSE,[3],150.67 mg/dL
same,LACTATE DEHYDROGENASE,[3],316 u/L
same,LIPASE,[3],10 u/L
same,PHOSPHORUS,[3],13.2 mg/dL
same,POTASSIUM,[3],7.12 MEQ/L
same,SODIUM,[3],146.57 MEQ/L
same,TOTAL BILIRUBIN,[3],0.2 mg/dL
same,TOTAL PROTEIN,[3],5.93 G/DL
same,URIC ACID,[3],2.37 mg/dL
